Measurements published in patent publication US4698352A, “4-oxo-1,4-dihydronicotinic acid derivatives, salts thereof, and antibacterial agents containing the same” (Toyama Chemical Co., Ltd., priority 1982, dated 1987).
In brackets after ≈: the same amount, converted by molar mass. Where two headings read alike, the source gives them in different places.

How the values were obtained:
Assay in all cases: Antibacterial activity (MIC), agar dilution
Format in all cases: cell-based
E. coli NIHJ JC-2 = details: Escherichia coli, NIHJJC2, 20 h
Excerpt: (§1) The amount of bacteria inoculated was 10^4 cells per plate (10^6 cells per ml).

Ps. aeruginosa IFO3445 = details: Pseudomonas aeruginosa
Excerpt: as §1

Kl. pneumoniae Y-41 = details: Klebsiella pneumoniae, Y41, 10^6 cells per ml, 37° C., 20 hours, read-out: MIC
Excerpt: as §1

Pro. vulgaris GN3027 = details: Proteus vulgaris, GN3027, 20 h, Pro. vulgaris GN3027; 10^6 cells per ml; 37° C., 20 hours; read-out: MIC
Excerpt: as §1

St. aureus FDA209P = details: Staphylococcus aureus, FDA209P, 20 h
Excerpt: as §1

Pro. mirabilis T-111 = details: Proteus mirabilis, 37° C.
Excerpt: as §1

E. coli TK-111 = details: Escherichia coli, TK111, 20 h
Excerpt: as §1

Pro. morganii T-216 = details: Morganella morganii, 37° C.
Excerpt: as §1

Aci. antitratus A-6 = details: 20 h
Excerpt: as §1

Ps. aeruginosa S-68 = details: Pseudomonas aeruginosa
Excerpt: as §1

Kl. pneumoniae Y-50 = details: Klebsiella pneumoniae, Y50, 20 h, 10^6 cells per ml, 37° C., read-out: MIC
Excerpt: as §1

Ent. cloacae IID977 = details: Enterobacter cloacae, IID977, 20 h
Excerpt: as §1

Kl. pneumoniae Y-4* = details: Klebsiella pneumoniae, 20 h, Kl. pneumoniae Y-4, penicillinase-producing; 10^6 cells per ml; read-out: MIC
Excerpt: as §1
(§2) * Penicillinase-producing bacteria

Ps. aeruginosa GN3379* = details: Pseudomonas aeruginosa, 20 h; Ps. aeruginosa GN3379, penicillinase-producing; 10^6 cells per ml; read-out: MIC
Excerpt: as §1, §2

St. aureus F-137* = details: Staphylococcus aureus, 20 h
Excerpt: as §1, §2

E. coli TK-3* = details: Escherichia coli, 20 h
Excerpt: as §1, §2

Ps. aeruginosa GN918** = details: Pseudomonas aeruginosa, Ps. aeruginosa GN918, cephalospolinase-producing, 10^6 cells per ml
Excerpt: as §1
(§3) ** Cephalospolinase-producing bacteria

E. coli GN5482** = details: Escherichia coli, 20 h; E. coli GN5482, cephalospolinase-producing; 10^6 cells per ml; read-out: MIC
Excerpt: as §1, §3

Pro. vulgaris GN76** = details: Proteus vulgaris
Excerpt: as §1, §3

[1] = E. coli NIHJ JC-2, 10^6 cells per ml, 37° C., 20 hours, read-out: MIC
[2] = St. aureus FDA209P, 10^6 cells per ml, 37° C., 20 hours, read-out: MIC
[3] = T111, 10^6 cells per ml, 20 hours, read-out: MIC
[4] = E. coli TK-111, 10^6 cells per ml, 37° C., 20 hours, read-out: MIC
[5] = T216, 10^6 cells per ml, 20 hours, read-out: MIC
[6] = St. aureus F-137, penicillinase-producing, 10^6 cells per ml, read-out: MIC

Row | SMILES | MIC (E. coli NIHJ JC-2; [1]) [µg/mL] | MIC (Kl. pneumoniae Y-41) [µg/mL] | MIC (Pro. vulgaris GN3027) [µg/mL] | MIC (St. aureus FDA209P; [2]) [µg/mL] | MIC (Pro. mirabilis T-111; [3]) [µg/mL] | MIC (E. coli TK-111; [4]) [µg/mL] | MIC (Pro. morganii T-216; [5]) [µg/mL] | MIC (Aci. antitratus A-6) [µg/mL] | MIC (Kl. pneumoniae Y-50) [µg/mL] | MIC (Kl. pneumoniae Y-4*) [µg/mL] | MIC (Ps. aeruginosa GN3379*) [µg/mL] | MIC (Ps. aeruginosa GN918**; 20 h, read-out: MIC) [µg/mL] | MIC (E. coli GN5482**) [µg/mL] | MIC (Pro. vulgaris GN76**; GN76, 20 h) [µg/mL] | MIC (Ps. aeruginosa IFO3445; IFO3445, 20 h) [µg/mL] | MIC (Ps. aeruginosa S-68; S68, 20 h) [µg/mL] | MIC (Ent. cloacae IID977) [µg/mL] | MIC (St. aureus F-137*; [6]) [µg/mL] | MIC (E. coli TK-3*) [µg/mL] | also measured
1 | CN(C)c1ccc(-c2cc(=O)c(C(=O)O)cn2-c2ccc(OS(=O)(=O)O)cc2)cc1 | 1.56 (≈ 3.62 µM) | 25 (≈ 58.1 µM) | 1.56 (≈ 3.62 µM) | 0.78 (≈ 1.81 µM) | 25 (≈ 58.1 µM) | 0.78 (≈ 1.81 µM) | 12.5 (≈ 29 µM) | 3.13 (≈ 7.27 µM) | 3.13 (≈ 7.27 µM) | 25 (≈ 58.1 µM) | 50 (≈ 116 µM) | 12.5 (≈ 29 µM) | 0.2 (≈ 0.465 µM) | 3.13 (≈ 7.27 µM) |  |  |  |  |  | MIC (Ps. aeruginosa IFO3445; Ps. aeruginosa IFO3445, 10^6 cells per ml, 37° C., 20 hours, read-out: MIC): 50 µg/mL (≈ 116 µM); MIC (Ps. aeruginosa S-68; S68, Ps. aeruginosa S-68, 10^6 cells per ml, 37° C., 20 hours, read-out: MIC): 25 µg/mL (≈ 58.1 µM); MIC (Ent. cloacae IID977; Ent. cloacae IID977, 10^6 cells per ml, 37° C., 20 hours, read-out: MIC): 12.5 µg/mL (≈ 29 µM); MIC (St. aureus F-137*): 3.13 µg/mL (≈ 7.27 µM); MIC (E. coli TK-3*; E. coli TK-3, penicillinase-producing, 10^6 cells per ml, read-out: MIC): 6.25 µg/mL (≈ 14.5 µM)
2 | O=C(O)c1cn(-c2ccc(O)cc2)c(C2CC=CCC2)cc1=O (stereo not drawn) |  | 6.25 (≈ 20.1 µM) | 0.39 (≈ 1.25 µM) |  |  |  | 3.13 (≈ 10.1 µM) | 6.25 (≈ 20.1 µM) | 1.56 (≈ 5.01 µM) | 12.5 (≈ 40.1 µM) | 25 (≈ 80.3 µM) |  | 0.39 (≈ 1.25 µM) | 1.56 (≈ 5.01 µM) | 12.5 (≈ 40.1 µM) | 12.5 (≈ 40.1 µM) | 6.25 (≈ 20.1 µM) | 3.13 (≈ 10.1 µM) | 6.25 (≈ 20.1 µM) | MIC (E. coli NIHJ JC-2): 6.25 µg/mL (≈ 20.1 µM); MIC (St. aureus FDA209P): 1.56 µg/mL (≈ 5.01 µM); MIC (Pro. mirabilis T-111; T111, 20 h, 10^6 cells per ml): 12.5 µg/mL (≈ 40.1 µM); MIC (E. coli TK-111): 1.56 µg/mL (≈ 5.01 µM); MIC (Ps. aeruginosa GN918**; GN918, 20 h): 1.56 µg/mL (≈ 5.01 µM)
3 | Cc1cc(O)ccc1-n1cc(C(=O)O)c(=O)cc1C1=CCCC1 | 0.78 (≈ 2.51 µM) | 1.56 (≈ 5.01 µM) | 0.1 (≈ 0.321 µM) | 0.78 (≈ 2.51 µM) | 3.13 (≈ 10.1 µM) | 0.2 (≈ 0.642 µM) |  |  | 0.39 (≈ 1.25 µM) | 6.25 (≈ 20.1 µM) | 25 (≈ 80.3 µM) | 3.13 (≈ 10.1 µM) | 0.1 (≈ 0.321 µM) |  | 6.25 (≈ 20.1 µM) | 6.25 (≈ 20.1 µM) | 1.56 (≈ 5.01 µM) | 0.78 (≈ 2.51 µM) | 1.56 (≈ 5.01 µM) | MIC (Pro. morganii T-216; T216, 20 h, 10^6 cells per ml): 1.56 µg/mL (≈ 5.01 µM); MIC (Aci. antitratus A-6; Aci. antitratus A-6, 10^6 cells per ml, 37° C., 20 hours, read-out: MIC): 0.78 µg/mL (≈ 2.51 µM); MIC (Pro. vulgaris GN76**; 20 h, Pro. vulgaris GN76, cephalospolinase-producing, 10^6 cells per ml, read-out: MIC): 0.78 µg/mL (≈ 2.51 µM)
